In ChEMBL document CHEMBL1132917, “Discovery of a potent, non-triketone type inhibitor of 4-hydroxyphenylpyruvate dioxygenase” (Bioorg Med Chem Lett, 2000):

Molecular target: 4-hydroxyphenylpyruvate dioxygenase (Sus scrofa, UniProt Q02110)
Assay: In vitro inhibitory activity against HPPD(4-hydroxyphenylpyruvate Dioxygenase) from pig liver using enol borate assay method

4-hydroxyphenylpyruvate dioxygenase, sequence (Q02110 whole entry): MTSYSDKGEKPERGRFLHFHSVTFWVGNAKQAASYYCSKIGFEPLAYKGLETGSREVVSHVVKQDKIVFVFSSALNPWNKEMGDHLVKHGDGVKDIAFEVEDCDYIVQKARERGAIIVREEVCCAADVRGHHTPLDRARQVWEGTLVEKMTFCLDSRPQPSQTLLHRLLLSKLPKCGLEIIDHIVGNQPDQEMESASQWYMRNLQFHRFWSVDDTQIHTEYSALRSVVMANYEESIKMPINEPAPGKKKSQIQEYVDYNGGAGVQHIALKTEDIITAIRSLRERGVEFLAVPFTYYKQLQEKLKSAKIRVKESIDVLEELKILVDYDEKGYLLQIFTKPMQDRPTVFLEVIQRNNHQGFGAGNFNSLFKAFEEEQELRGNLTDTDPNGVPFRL

Row | IC50 [µM] | SMILES
1 | 4.16 | CC(C)C(=O)OC1=CC(=O)CCC1
2 | 0.03 | O=C1C=C(OC(=O)C2CC2)CCC1
3 | 3.62 | CC(=O)OC1=CC(=O)CCC1
